Measured values: patent publication US8148371B2, “Adenine compound and use thereof” (Dainippon Sumitomo Pharma Co., Ltd., priority 2002, dated 2012)
Where two headings read alike, the source gives them in different places. Marks after values point to notes of the source that are not given here.

Experiments:
cells of mouse spleen = test: cells; type: cell-based, C3H/HeJ mouse; details: Mus musculus, 24 h, read-out: Minimum effective concentration (interferon inducing activity)
cells of rat spleen = test: cells; type: cell-based, SD rat; details: 24 h, read-out: Minimum effective concentration (interferon inducing activity)
leucocytes in BALF = test: Amount of leucocytes in bronchoalveolar lavage fluid (BALF) on an asthma modeled mouse; type: in vivo, C57BL/6 mouse; details: 10 mg/kg nasally, BALF 18 hours after ovalbumin challenge
Description: (§1) C57BL/6 mouse was immunized by dermally administering denatured ovalbumin by heating (40 mg). Fourteen days later after the first immunization, ovalbumin (100 μg) was nasally busted. Twenty one days later after the first immunization, the solution (1 ml/kg) prepared by suspending the test compound (10 mg/kg) in physiological saline was nasally administered (10 μl/10 g/body weight). After 2 hours ovalbumin (100 μg) was nasally challenged. After 18 hours, bronchoalveolar lavege fluid (BALF) was collected, and the total number of leucocytes in BALF and fractioned leukocyte in the cytospin sample were measured. By ELISA method, IL-4 and IL-5 in the supernatant were measured. The number of leucocytes (inhibition %) was shown in Table 5 and the production inhibition activity of IL-4 and IL-5 (inhibition % to control) was shown in Table 6.

IL-4 = IL-4 in BALF supernatant on an asthma modeled mouse (ELISA); type: in vivo, C57BL/6 mouse; details: 10 mg/kg nasally
Description: as §1

IL-5 = IL-5 in BALF supernatant on an asthma modeled mouse (ELISA); type: in vivo, C57BL/6 mouse; details: 10 mg/kg nasally
Description: as §1

plasma esterase = details: rat plasma, 37° C., 15 minutes
Description: The compound of the present invention is added to the serum solution, and the mixture is incubated at 37±0.5° C. for 5 minutes to 2 hours. By quantitatively analyzing at the definite interval the amount of the compound of the present invention remaining in the serum solution with HPLC (high performance liquid chromatography), etc., the constant of quenching velocity calculated and the half life is calculated.
The serum herein means the supernatant fraction obtained by excluding hemocytes and blood coagulation factor from blood by centrifugation, etc. The serum diluted with buffer, etc. can be used.
The metabolic stability of the test compound was presented by the residual amount (%) per the concentration of pre-metabolization.

[1] = Metabolic stability on liver S9 of rat; details: rat liver S9, test compound 1 μM, 37° C.
[2] = test system: type 2 herpes virus (HSV-2); test: Anti HSV activity in mouse infected with HSV-2 in its vagina; type: in vivo, BALB/c female mouse; details: 9 days after virus-infection
Description: Compound A was spread to a vagina of a female mouse (BALB/c) to which previously Depo-Provera was administered, and on next day, HSV-2 was infected to the vagina. Nine days later, the rate of survival or death of mice was observed and compared.
On the back of a BALB/c female mouse (6 weeks old: Nippon SLC) 3 mg of Depo-Provera/mouse (Registered Trade Mark) was dermally administered and the mice were fed for 6 days. By doing this the sexual cycle was tuned and the sensitivity between mice to herpes virus was balanced. The slime of mouse vagina was removed by a cotton swab for baby, and the ointment (20 mg) containing 0.5% of compound of Example 20 or the ointment (10 mg) containing 5% of compound of Example 20 was spread to the vagina (corresponding 0.1 mg and 0.5 mg per mouse of the compound of Example). As a control, the placebo ointment not containing the compound was spread as well. As the ointment, the base consisting of 80% Vaseline and 20% liquid paraffin were used. On the next day, the slime of mouse vagina was removed by a cotton swab for baby and then, 2×10^4 pfu type 2 herpes virus (HSV-2)(10 μl/mouse) was administered to the vagina by pipette. After infection the death or survival of the mice was observed.

Q: Which minimal effective concentration (cells of mouse spleen) does the source give for `CCCCOc1nc(N)c2nc(O)n(Cc3ccc(C(=O)OC)o3)c2n1` [Example 15, 2-Butoxy-8-hydroxy-9-(5-methoxycarbonylfurfuryl)adenine] here?
A: 0.003 µM

Q: And the minimal effective concentration (cells of rat spleen)?
A: 0.001 µM

Q: And the “Acidophile (inhibition %)” value (leucocytes in BALF)?
A: 101%

Q: And the “Netrophile (inhibition %)” value (leucocytes in BALF)?
A: −92%

Q: What about the “Number of total leukocyte (inhibition %)” value (leucocytes in BALF) of the same compound?
A: 84%

Q: What about the “IL-4 production inhibition activity (inhibition % to control)” value (IL-4) of the same compound?
A: 80%

Q: And the “IL-5 production inhibition activity (inhibition % to control)” value (IL-5)?
A: 75%

Q: And the Residual rate (plasma esterase; test compound 10 μM)?
A: 0%

Q: And the Residual rate [1]?
A: 11%

Q: With `CCC(=O)OCC(=O)[C@@]1(OC(=O)CC)[C@@H](C)C[C@H]2[C@@H]3CCC4=CC(=O)C=C[C@]4(C)[C@@]3(Cl)[C@@H](O)C[C@@]21C` [Beclometasone dipropionate] as the compound, how does the “Acidophile (inhibition %)” value (leucocytes in BALF) read?
A: 89%

Q: What about the “Netrophile (inhibition %)” value (leucocytes in BALF) of the same compound?
A: 90%

Q: What about the “Number of total leukocyte (inhibition %)” value (leucocytes in BALF) of the same compound?
A: 92%

Q: What about the “IL-4 production inhibition activity (inhibition % to control)” value (IL-4) of the same compound?
A: 97%

Q: And the “IL-5 production inhibition activity (inhibition % to control)” value (IL-5)?
A: 100%

Q: What does the source list for `CCCCOc1nc(N)c2[nH]c(=O)n(Cc3cccc(C(=O)OC)c3)c2n1` [Example 1, 2-Butoxy-8-hydroxy-9-(3-methoxycarbonylbenzyl)adenine]?
A: minimal effective concentration (cells of mouse spleen): < 0.001 µM; minimal effective concentration (cells of rat spleen): 0.0003 µM; Residual rate (plasma esterase; test compound 10 μM): 32%; Residual rate [1]: 7%

Q: For `CCCCOc1nc(N)c2nc(O)n(Cc3ccc(CC(=O)OC)cc3)c2n1` [Example 20, 2-Butoxy-8-hydroxy-9-(4-methoxycarbonylmethylbenzyl)adenine], which minimal effective concentration (cells of mouse spleen) is on record?
A: 0.003 µM

Q: And the minimal effective concentration (cells of rat spleen)?
A: 0.0001 µM

Q: What about the survived rate ([2]; 5% ointment (0.5 mg per mouse) spread to vagina) of the same compound?
A: 100%

Q: And the “survived rate comparing with a control group” value ([2]; ointments containing 0.5% and 5%)?
A: clearly higher survived rate

Q: And the Residual rate (plasma esterase; test compound 10 μM)?
A: 0%

Q: And the Residual rate [1]?
A: 0%

Q: Which minimal effective concentration (cells of mouse spleen) does the source give for `CCCCOc1nc(N)c2nc(O)n(Cc3ccc(CC(=O)OC(C)C)cc3)c2n1` [Example 21, 2-Butoxy-8-hydroxy-9-(4-isopropoxycarbonylmethylbenzyl)adenine] here?
A: 0.003 µM

Q: What about the minimal effective concentration (cells of rat spleen) of the same compound?
A: 0.001 µM

Q: And the Residual rate (plasma esterase; test compound 1 μM (*))?
A: 0* %

Q: And the Residual rate [1]?
A: 26%
